{"source": "patent US12642809B2", "about": "“Fucosylation and immune modulation in cancer” (H. LEE MOFFITT CANCER CENTER AND RESEARCH INSTITUTE, INC., priority 2019, dated 2026)", "key": {"[1]": {"test_system": "human CD4+ T cells", "test": "CD3/CD28 human CD4+ T cell activation assay / IFNγ ELISA", "type": "cell-based", "experimental": "Human CD4^+ T cells were isolated from fresh PBMC using a CD4^+ T cell negative selection isolation kit (Stem Cell Technologies, (Vancouver CA)) according to manufacturer's protocols. CD4^+ T cells were cultured in the presence of DMSO, 250 μM FUTi (Millapore Sigma (St. Louis, MO)), or 250 μM L-fucose 3 days prior to activation. After 3 days, the CD4^+ T cells were activated using anti-CD3/CD28 Dynabeads (ThermoFisher Scientific (Waltham, MA)) in a 1:1 bead: CD4^+ T cell ratio. After 24 h, supernatants were collected and IFNγ ELISA was performed according to manufacturer's protocols (Biolegend (San Diego, CA))."}, "[2]": {"test_system": "SW1 tumors", "test": "Anti-PD1 ± L-fucose, SW1 (NRAS-mutant) model in C3H mice", "type": "in vivo, mouse", "source_text": "Fucosylation of HLA-DRB1 occurs on amino acid N48 (mutation to G abolishes interaction with fucose-binding AAL, lectin) (FIG. 9A). […] To further investigate the efficacy of the combination therapy of L-fucose and anti-PD1 and to see if the combination of L-fucose and anti-PD1 improved the efficacy of either agent alone, two mouse melanoma mouse models were used. The first was the NRAS-mutant melanoma mouse model. Here, C3H mice were pretreated with anti-PD1 and/or L-fucose or a L-fucose pre-dose followed by anti-PD1 antibody (FIG. 11). […] Using a BRAF-mutant melanoma model, the efficacy of the combination therapy was more pronounced. Here C57BL6 mice were challenged with SMI cells (FIG. 11). 7 days post challenge, mice received either a control, anti-PD1, L-fucose, or L-fucose and anti-PD1.\nSW1 or SM1 mouse melanoma cells were injected into syngeneic C3H/HeN female or C57BL/6 male mice, respectively. After approximately 7 days, when the mice tumors reached ˜150 mm^3, the mice were either supplemented with or without 100 mM L-fucose (Biosynth (Oak Terrace, IL)) via drinking water, which was provided ad libitum. Simultaneously, the mice were injected either with PBS (control) or anti-PD1 (20 mg/kg, clone RMP1-14, Bioxcell (West Lebanon, NH)) every 3-4 days until endpoint. When the tumors reached ˜2 cm^3, the animals were sacrificed."}, "[3]": {"test_system": "1205Lu melanoma cells", "test": "LDH-release NK cell killing of pre-treated 1205Lu melanoma cells", "type": "cell-based", "conditions": "250 μM pre-treatment, 8 h co-culture, immortalized and primary human NK cells", "experimental": "The possibility that tumor fucosylation can directly activate the tumor cell-killing activity of NK cells was explored. To assay for this possibility, a lactate dehydrogenase (LDH)-release-based assay was used in which the fucosylation of LU1205 melanoma cells was modulated prior to co-culture with NK cells. Specifically, primary NK cells isolates (5A) or immortalized NK92 cell line (5B) were co-cultured with 1205Lu melanoma cells that were pre-treated with DMSO, 250 μM pan-fucosyltransferase inhibitor (FUTi), or 250 μM L-fucose for 8 hours. Non-radioactive LDH-release cytotoxicity assay was performed to measure extent of NK cell-mediated killing. […] Immunoblot analysis using AAL lectin (another fucose-binding lectin) was performed to confirm the effects of FUTi (5C) or L-fucose (5D) on 1205Lu cells (96 h treatment). (•: […]) (*: […])."}, "[4]": {"test_system": "cell surface fucosylation", "test": "Flow cytometry of cell surface fucosylation (AAL lectin) in melanoma cells", "type": "cell-based, human", "conditions": "250 μM, 72 h, panel of melanoma cell lines", "experimental": "(§1) Indicated cells were treated for 72 h with DMSO, 250 μM fucosyltransferase inhibitor (FUTi) (Millipore Sigma (St. Louis, MO)), or 250 μM of L-fucose (Biosynth (Oak Terrace, IL)). After 72 h, cells were stained with 0.1 μM PKH26 (Millipore Sigma (St. Louis, MO)) prior to fixation in 4% formaldehyde solution. The cells were stained with anti-HLA-DRB1 (rabbit anti-human HLA-DRB1 (0.2 μg/mL, ab92371, Abcam (Cambridge, UK)) and fluorescein AAL (0.2 μg/ml. Vector Labs (Burlingame, CA)), or anti-human or anti-mouse PD-L1 (Novus Biologicals (Centennial, CO) or Biolegend (San Diego, CA), respectively) overnight. The following day the cells were washed 3 times prior to adding AlexaFluor 594 donkey anti-rabbit (0.8 μg/mL, ThermoFisher Scientific (Waltham, MA)). Cells were washed 3 times and then subject to flow cytometric analyses using a FACSCalibur™ (BD Biosciences (San Jose, CA)). Samples were analyzed using FlowJo™ analysis software (BD Biosciences (San Jose, CA)). Median values of DRB1 and AAL were normalized to PKH26 values and statistical analysis was performed using GraphPad Prism™."}, "[5]": {"test_system": "PD-L1", "test": "Flow cytometry of cell surface PD-L1 in melanoma cells", "type": "cell-based, human or mouse", "conditions": "250 μM; WM793, SW1, SM1 cells", "source_text": "FIGS. 22A, 22B, 22C, 22D, 22E, and 22F show reduced cell surface class II MHC during anti-PD-1 failure; L-PLA schematic and the effects of L-fucose on tumoral PD-L1 expression and peripheral human CD4^+ T cell fucosylation and IFNγ production/secretion. […] We stained for (i) HLA-DRB1 using anti-HLA-DRB1 followed by (+) oligo-conjugated PLA secondary and (ii) fucosylated glycan using biotinylated (“B”) AAL lectin followed by anti-biotin followed by (−) oligo-conjugated PLA secondary. Ligated PLA oligos were subjected to rolling circle amplification PCR (RCA PCR), giving rise to fluorescent punctae. […] Healthy human donor peripheral CD4^+ T cells were treated with DMSO (D) and 250 μM FUTi (i) or L-fuc (L-f) and subjected to (22E) IB analysis for changes in fucosylation (AAL IB) or (22F) ELISA assay to measure changes in IFNγ production/secretion. *=p-value<0.05.\nIndicated cells were treated for 72 h with DMSO, 250 μM fucosyltransferase inhibitor (FUTi) (Millipore Sigma (St. Louis, MO)), or 250 μM of L-fucose (Biosynth (Oak Terrace, IL)). After 72 h, cells were stained with 0.1 μM PKH26 (Millipore Sigma (St. Louis, MO)) prior to fixation in 4% formaldehyde solution. […]"}, "[6]": {"test_system": "Leukocyte Adhesion Deficiency II", "conditions": "L-fuc supplementation; cited from earlier work"}, "[7]": {"test_system": "MDSCs", "test": "T cell proliferation in co-culture with pre-treated MDSCs", "type": "cell-based", "conditions": "CD3/CD28 activation, CellTrace Violet", "experimental": "Shown progressive divisions of CD3/CD28-activated T cells (both CD4+ and CD8+ combined) as affected by co-culture with DMSO (control)-, FUTi (fucosyltransferase inhibitor)-, or L-fucose-pre-treated MDSCs. Undivided T cells are represented by the dark grey column. Divisions were measured by loss of CellTrace™ Violet stain. First division is represented by the light green column; second division is represented by the yellow column; and third division is represented by the navy blue column."}, "[8]": {"test_system": "melanoma tumors", "conditions": "cited from earlier work"}, "[9]": {"test_system": "HLA-DRB1", "test": "Flow cytometry of cell surface HLA-DRB1 in melanoma cells", "type": "cell-based, human", "conditions": "250 μM, 72 h, panel of melanoma cell lines", "experimental": "as §1"}}, "note": "“Also recorded” adds a separate entry of the source.", "data": [{"smiles": "C[C@H](O)[C@@H](O)[C@@H](O)[C@H](O)C=O", "note": "[L-fucose]", "values": [{"measurement": "increase of CD4+ T cell activation (IFNγ production)", "setting": "[1]; 250 μM, 3 days before CD3/CD28 activation", "result": "~37", "unit": "%"}, {"measurement": "IFN-γ production relative to DMSO treated controls", "setting": "[1]; FIG. 13", "result": "increase"}, {"measurement": "suppressed tumor growth", "setting": "[2]; 100 mM L-fuc alone", "result": "50-60%"}, {"measurement": "control of tumor", "setting": "[2]; NRAS-mutant model, FIG. 11, single agents", "result": "effectively control the tumor"}, {"measurement": "tumor suppression compared with anti-PD1", "setting": "[2]; single agents", "result": "as much as anti-PD1; also recorded: as well as anti-PD1"}, {"measurement": "NK cell-mediated tumor-cell killing", "setting": "[3]", "result": "sufficient to induce the tumor-cell killing activity"}, {"measurement": "cell surface fucosylation relative to DMSO", "setting": "[4]", "result": "increased"}, {"measurement": "cell surface PD-L1", "setting": "[5]", "result": "did not find that modulating fucosylation alters"}, {"measurement": "co-morbidities", "setting": "[6]", "result": "without significant co-morbidities"}, {"measurement": "symptoms of the disorder", "setting": "[6]", "result": "can be mitigated"}, {"measurement": "effect of pre-treated MDSCs on T cell proliferation", "setting": "[7]", "result": "do not"}, {"measurement": "tumor suppression", "setting": "[8]; 100 mM fucose dietary supplementation", "result": "increased tumor suppression"}, {"measurement": "block/reduction of tumor growth (and metastasis)", "setting": "[8]; dietary L-fucose supplementation", "result": "> 50", "unit": "%"}, {"measurement": "NK cells and CD4+ T cells in tumor samples", "setting": "[8]; fucose supplemented mice", "result": "elevated"}, {"measurement": "cell surface HLA-DRB1 relative to DMSO", "setting": "[9]", "result": "promotes cell surface abundance; also recorded: increased"}, {"measurement": "cell surface HLA-DRB1 relative to DMSO", "setting": "[9]; listed as L-fuc", "result": "increased"}]}]}
